# Test results published in patent publication US9107853B2, “Compositions containing phenolic compounds and hydrotropes for cosmetic use” (L'Oreal S.A., priority 2012, dated 2015).
# Key:
# Assay type in all cases: physicochemical
# [1] = Solubility in water, with or without hydrotropes, at room temperature
# [2] = Solubility in organic solvent PEG-4
# Text: (§1) Crystallization or precipitation occurs after mixing the glycol phase and water phase.
# [3] = Stability of solutions (pH, dilution in water)
# Text: as §1
# The solubility of baicalin can be increased by raising the concentration of hydrotropes.
smiles,measurement,setting,value
O=C(O)[C@H]1O[C@@H](Oc2cc3oc(-c4ccccc4)cc(=O)c3c(O)c2O)[C@H](O)[C@@H](O)[C@@H]1O [Baicalin],water solubility,[1],< 0.01%
same,amount dissolved by PEG-4,[2],3%
same,degradation as a function of pH,[3]; aqueous,degradation happens at pH>5
same,stability of solution after dilution in water,[3]; hydrotrope solution diluted in water,still stable if diluted in water
same,stability of solution after dilution in water,"[3]; solution in organic solvent such as PEG-4, diluted in water",not stable any more
